Test results published in patent US9504669B2, “Spliceostatin analogs and methods for their preparation” (PFIZER INC., priority 2012, dated 2016).

What was measured:
Type in all cases: cell-based
[1] = system: BT474 (breast cancer) cells; test: In vitro cell assay (MTS cell viability), BT474; settings: Homo sapiens, BT-474; free compounds (natural products and synthetic analogs); cell viability 96 hours after treatment
Experimental: Target expressing (BT474 (breast cancer), N87 (gastric cancer), HCC1954 (breast cancer), MDA-MB-361-DYT2 (breast cancer)) or non-expressing (MDA-MB-468) cells were seeded in 96-well cell culture plates for 24 hours before treatment. Cells were treated with 3-fold serially diluted antibody-drug conjugates or free compounds (i.e., no antibody conjugated to the drug) in duplicate at 10 concentrations. Cell viability was determined by CellTiter 96® AQueous One Solution Cell Proliferation MTS Assay (Promega, Madison Wis.) 96 hours after treatment. Relative cell viability was determined as percentage of untreated control. IC50 values were calculated using a four parameter logistic model #203 with XLfit v4.2 (IDBS, Guildford, Surry, UK). The potency ranged upward from 0.0002 nm. Similar procedures and techniques were employed.

[2] = system: N87 (gastric cancer) cells; test: In vitro cell assay (MTS cell viability), N87; settings: 96 h, free compounds (natural products and synthetic analogs); cell viability 96 hours after treatment
Summary of the method: (§1)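 Cells seeded 24 h, then treated with antibody-drug conjugates or free drug, 3-fold serial dilutions at 10 concentrations in duplicate. Viability by MTS at 96 h as percent of untreated control; IC50 from four-parameter logistic fit.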

[3] = system: MDA-MB-361-DYT2 (breast cancer) cells; test: In vitro cell assay (MTS cell viability), MDA-MB-361-DYT2; settings: 96 h, free compounds (natural products and synthetic analogs); cell viability 96 hours after treatment
Summary of the method: as §1

| SMILES | IC50 [1] | IC50 [2] | IC50 [3] |
| --- | --- | --- | --- |
| CC(=O)O[C@@H](C)/C=C\C(=O)N[C@@H]1C[C@H](C)[C@H](C/C=C(C)/C=C/[C@@H]2C[C@]3(CO3)C[C@@H](CC(=O)NO)O2)O[C@@H]1C [#B22, (2S,3Z)-5-({(2R,3R,5S,6S)-6-[(2E,4E)-5-{(3S,5S,7S)-7-[2-(hydroxyamino)-2-oxoethyl]-1,6-dioxaspiro[2.5]oct-5-yl}-3-methylpenta-2,4-dien-1-yl]-2,5-dimethyltetrahydro-2H-pyran-3-yl}amino)-5-oxopent-3-en-2-yl acetate] | 1.76 nM | 4.23 nM | 7.46 nM |
| CC(/C=C/[C@@H]1C[C@]2(CO2)C[C@@H](CC(N)=O)O1)=C\C[C@@H]1O[C@H](C)[C@H](NC(=O)/C=C\[C@H](C)O)C[C@@H]1C [#B39, (2Z,4S)—N-[(2R,3R,5S,6S)-6-{(2E,4E)-5-[(3S,5S,7S)-7-(2-amino-2-oxoethyl)-1,6-dioxaspiro[2.5]oct-5-yl]-3-methylpenta-2,4-dien-1-yl}-2,5-dimethyltetrahydro-2H-pyran-3-yl]-4-hydroxypent-2-enamide] | 3.4 nM | 4.65 nM | 7.67 nM |
| CC(/C=C/[C@@H]1C[C@]2(CO2)C[C@@H](CC(N)=O)O1)=C\C[C@@H]1O[C@H](C)[C@H](NC(=O)/C=C\[C@H](C)OC(=O)N2CCCCC2)C[C@@H]1C [#B40, (2S,3Z)-5-{[(2R,3R,5S,6S)-6-{(2E,4E)-5-[(3S,5S,7S)-7-(2-amino-2-oxoethyl)-1,6-dioxaspiro[2.5]oct-5-yl]-3-methylpenta-2,4-dien-1-yl}-2,5-dimethyltetrahydro-2H-pyran-3-yl]amino}-5-oxopent-3-en-2-yl piperidine-1-carboxylate] | 1.86 nM | 6.76 nM | 5.84 nM |
| COC(=O)C[C@@H]1C[C@@]2(CO2)[C@H](O)[C@@H](/C=C/C(C)=C/C[C@@H]2O[C@H](C)[C@H](NC(=O)/C=C\[C@H](C)OC(C)=O)C[C@@H]2C)O1 [#B55, methyl [(3R,5S,7R,8R)-7-{(1E,3E)-5-[(2S,3S,5R,6R)-5-{[(2Z,4S)-4-(acetyloxy)pent-2-enoyl]amino}-3,6-dimethyltetrahydro-2H-pyran-2-yl]-3-methylpenta-1,3-dien-1-yl}-8-hydroxy-1,6-dioxaspiro[2.5]oct-5-yl]acetate] | 0.879 nM | 0.822 nM | 1.26 nM |
| CCCNC(=O)C[C@@H]1C[C@@]2(CO2)[C@H](O)[C@@H](/C=C/C(C)=C/C[C@@H]2O[C@H](C)[C@H](NC(=O)/C=C\[C@H](C)OC(=O)C(C)C)C[C@@H]2C)O1 [#B71, (2S,3Z)-5-({(2R,3R,5S,6S)-6-[(2E,4E)-5-{(3R,4R,5R,7S)-4-hydroxy-7-[2-oxo-2-(propylamino)ethyl]-1,6-dioxaspiro[2.5]oct-5-yl}-3-methylpenta-2,4-dien-1-yl]-2,5-dimethyltetrahydro-2H-pyran-3-yl}amino)-5-oxopent-3-en-2-yl 2-methylpropanoate] | 1.08 nM | 0.451 nM | 1.36 nM |
| CC(=O)O[C@@H](C)/C=C\C(=O)N[C@@H]1C[C@H](C)[C@H](C/C=C(C)/C=C/[C@H]2O[C@H](CC(=O)N3CCCCC3)C[C@@]3(CO3)[C@@H]2O)O[C@@H]1C [#B72, (2S,3Z)-5-({(2R,3R,5S,6S)-6-[(2E,4E)-5-{(3R,4R,5R,7S)-4-hydroxy-7-[2-oxo-2-(piperidin-1-yl)ethyl]-1,6-dioxaspiro[2.5]oct-5-yl}-3-methylpenta-2,4-dien-1-yl]-2,5-dimethyltetrahydro-2H-pyran-3-yl}amino)-5-oxopent-3-en-2-yl acetate] | 0.607 nM | 0.481 nM | 1.16 nM |
| CC(=O)O[C@@H](C)/C=C\C(=O)N[C@@H]1C[C@H](C)[C@H](C/C=C(C)/C=C/[C@@H]2C[C@]3(CO3)C[C@@H](CC(=O)NC(C)(C)C(=O)O)O2)O[C@@H]1C [#B79, N-{[(3S,5S,7S)-7-{(1E,3E)-5-[(2S,3S,5R,6R)-5-{[(2Z,4S)-4-(acetyloxy)pent-2-enoyl]amino}-3,6-dimethyltetrahydro-2H-pyran-2-yl]-3-methylpenta-1,3-dien-1-yl}-1,6-dioxaspiro[2.5]oct-5-yl]acetyl}-2-methylalanine] | 0.723 nM | 0.423 nM | 1.31 nM |
